Experimental data published in patent US10189836B2, “Therapeutic compounds, compositions and methods of use thereof” (Genentech, Inc., priority 2015, dated 2019).

Tests used:
[1] = target: isolated recombinant JAK1 kinase domain (Homo sapiens (Human), UniProt P23458); experiment: JAK1 enzyme assay (Caliper LabChip, Ki); type: biochemical; details: isolated recombinant JAK1 kinase domain, 1.5 nM enzyme, ATP 25 μM
[2] = target: isolated recombinant JAK2 kinase domain (Homo sapiens (Human), UniProt O60674); experiment: JAK2 enzyme assay (Caliper LabChip, Ki); type: biochemical; details: isolated recombinant JAK2 kinase domain, 0.2 nM enzyme, ATP 25 μM
Chain of isolated recombinant JAK2 kinase domain (O60674 849-1124): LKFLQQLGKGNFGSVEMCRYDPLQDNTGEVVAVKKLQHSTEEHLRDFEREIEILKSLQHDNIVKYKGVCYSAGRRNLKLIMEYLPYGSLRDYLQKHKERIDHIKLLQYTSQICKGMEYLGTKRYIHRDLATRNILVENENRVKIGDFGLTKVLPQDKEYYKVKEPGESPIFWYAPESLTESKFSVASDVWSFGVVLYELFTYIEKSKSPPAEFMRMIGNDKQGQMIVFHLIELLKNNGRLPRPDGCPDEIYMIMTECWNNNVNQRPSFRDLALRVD

Chain of isolated recombinant JAK1 kinase domain (P23458 875-1153): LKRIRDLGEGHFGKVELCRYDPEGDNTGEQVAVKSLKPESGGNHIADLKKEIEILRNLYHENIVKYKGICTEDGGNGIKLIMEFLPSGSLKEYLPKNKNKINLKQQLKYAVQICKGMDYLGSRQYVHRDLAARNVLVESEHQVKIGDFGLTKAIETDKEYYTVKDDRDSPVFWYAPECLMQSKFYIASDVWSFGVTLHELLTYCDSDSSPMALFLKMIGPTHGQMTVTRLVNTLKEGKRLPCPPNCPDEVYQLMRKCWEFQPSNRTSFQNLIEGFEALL

Row | SMILES | Ki [1] | Ki [2]
1 | CN1CCN(C(=O)Cn2cc(Nc3nc4c(N5C[C@H]6CC[C@@H](C5)[C@H]6OCc5ccccc5C#N)cccn4n3)cn2)CC1 [Example 142, 2-[[rac-(1S,5R)-3-[2-[[1-[2-(4-methylpiperazin-1-yl)-2-oxo-ethyl]pyrazol-4-yl]amino]-[1,2,4]triazolo[1,5-a]pyridin-8-yl]-3-azabicyclo[3.2.1]octan-8-yl]oxymethyl]benzonitrile] | 0.7 nM | 1.7 nM
2 | CN1CCN(C(=O)Cn2cc(Nc3nc4c(N5CC6CCC(C5)N6S(=O)(=O)c5cccc(C#N)c5)cccn4n3)cn2)CC1 [Example 143, 3-[[3-[2-[[1-[2-(4-methylpiperazin-1-yl)-2-oxo-ethyl]pyraol-4-yl]amino]-[1,2,4]triazolo[1,5-a]pyridin-8-yl]-3,8-diazabicyclo[3.2.1]octan-8-yl]sulfonyl]benzonitrile] | 0.5 nM | 1.1 nM
3 | COC1(C(F)(F)F)CN(C(=O)N2C3CCC2CN(c2cccn4nc(Nc5cnn(CC(=O)N6CCN(C)CC6)c5)nc24)C3)C1 [Example 146, 2-[4-[[8-[8-[3-methoxy-3-(trifluoromethyl)azetidine-1-carbonyl]-3,8-diazabicyclo[3.2.1]octan-3-yl]-[1,2,4]triazolo[1,5-a]pyridin-2-yl]amino]pyrazol-1-yl]-1-(4-methylpiperazin-1-yl)ethanone] | 6.1 nM | 6.1 nM
4 | CN1CCN(C(=O)Cn2cc(Nc3nc4c(N5CC6CCC(C5)N6S(=O)(=O)c5ccccc5C#N)cccn4n3)cn2)CC1 [Example 147, 2-[[3-[2-[[1-[2-(4-methylpiperazin-1-yl)-2-oxo-ethyl]pyrazol-4-yl]amino]-[1,2,4]triazolo[1,5-a]pyridin-8-yl]-3,8-diazabicyclo[3.2.1]octan-8-yl]sulfonyl]benzonitrile] | 0.4 nM | 0.3 nM
5 | CN1CCN(C(=O)Cn2cc(Nc3nc4c(N5CC6CCC(C5)N6S(=O)(=O)c5ccccc5C(F)(F)F)cccn4n3)cn2)CC1 [Example 148, 1-(4-methylpiperazin-1-yl)-2-[4-[[8-[8-(2-(trifluoromethyl)phenyl]sulfonyl-3,8-diazabicyclo[3.2.1]octan-3-yl]-[1,2,4]triazolo[1,5-a]pyridin-2-yl]amino]pyrazol-1-yl]ethanone] | 1.9 nM | 3.1 nM
6 | CN1CCN(C(=O)Cn2cc(Nc3nc4c(N5CC6CCC(C5)N6S(=O)(=O)c5ccc(C#N)cc5)cccn4n3)cn2)CC1 [Example 149, 4-[3-[2-([1-[2-(4-methylpiperazin-1-yl)-2-oxoethyl]-1H-pyrazol-4-yl]amino)-[1,2,4]triazolo[1,5-a]pyridin-8-yl]-3,8-diazabicyclo[3.2.1]octane-8-sulfonyl]benzonitrile] | 1.1 nM | 2 nM
7 | CN1CCN(C(=O)Cn2cc(Nc3nc4c(N5CC6CCC(C5)N6S(=O)(=O)c5ccccc5F)cccn4n3)cn2)CC1 [Example 150, 2-[4-[[8-[8-(2-fluorophenyl)sulfonyl-3,8-diazabicyclo[3.2.1]octan-3-yl]-[1,2,4]triazolo[1,5-a]pyridin-2-yl]amino]pyrazol-1-yl]-1-(4-methylpiperazin-1-yl)ethanone] | 0.7 nM | 1.5 nM
8 | O=C(Cn1cc(Nc2nc3c(N4CC5CCC(C4)N5C(=O)CCC(F)(F)F)cccn3n2)cn1)N1CCN(C2CCC2)CC1 [Example 152, 1-[3-[2-[[1-[2-(4-cyclobutylpiperazin-1-yl)-2-oxo-ethyl]pyrazol-4-yl]amino]-[1,2,4]triazolo[1,5-a]pyridin-8-yl]-3,8-diazabicyclo[3.2.1]octan-8-yl]-4,4,4-trifluoro-butan-1-one] | 0.6 nM | 1.7 nM
9 | O=C(Cn1cc(Nc2nc3c(N4CC5CCC(C4)N5C(=O)CCC(F)(F)F)cccn3n2)cn1)N1CCN(C2CCCCC2)CC1 [Example 153, 1-[3-[2-[[1-[2-(4-cyclohexylpiperazin-1-yl)-2-oxo-ethyl]pyrazol-4-yl]amino]-[1,2,4]triazolo[1,5-a]pyridin-8-yl]-3,8-diazabicyclo[3.2.1]octan-8-yl]-4,4,4-trifluoro-butan-1-one] | 0.2 nM | 0.3 nM
